# Read-outs that look alike come from different tables or passages of the source.
# Legend:
# [1] = Thermodynamic stability experiment in solvents at 60° C. (XRD); format: physicochemical; settings: one day
# Experimental: The crystalline form 1, crystalline form 2, crystalline form 3 and crystalline form 7 of the compound of formula I were mixed with acetone, ethyl acetate, methanol, water and tetrahydrofuran respectively, and then kept at 60° C. for one day for the investigation of the thermodynamic stability of each crystalline form. Insoluble solid was recovered by filtration and analyzed by XRD. Analysis conditions: Shimadzu XRD-6000, CuK source (1.54056 A) 40 kV, 30 mA; detection angle: 5-50°, speed: 5°/min.
# [2] = Solubility determination in water by HPLC; format: physicochemical; settings: suspension in water, 25° C.
# Experimental: HPLC detection was performed using the crystalline form 1 as a standard, with its concentration of 204.2 μg*mL^−1 and its content set as 100%, and the detection was performed 7 times. The average peak area was 159.691 mAU*min (retention time was 7.4 min).
# [3] = Dissolution rate of crystalline forms 1 and 2; format: physicochemical
# Source text: (§1) The moisture content, solubility and dissolution rate of the crystalline forms 1 and 2 were detected using the methods described above. The results are shown in Table 21, which indicate that the solubility, dissolution, and moisture content (total pharmaceutical properties) of the crystalline form 1 are higher than that of the crystalline form 2. Moreover, the crystalline forms 1 and 2 have the highest solubility in methanol.
# [4] = Dynamic vapor sorption (DVS) / moisture absorption; format: physicochemical; settings: for weight change (DVS): range of 0% RH to 80% RH, 25° C.
# Experimental: (4) Dynamic Water Adsorption (DVS), TA Instruments Q5000 TGA; controlling software: Thermal Advantage; analysis software: Universal Analysis; sample plate: platinum crucible; amount of the sample to be detected: 1-10 mg; protective gas: nitrogen; gas flow fate: 10 mL/min; detection method: equilibration at 25° C., humidity: 0%, isothermal treatment: 90 min, weight change to be detected: from 0% RH to 80% RH;
# as §1
# [5] = Stability of the crystalline forms (HPLC, XRD, DSC); format: physicochemical; settings: for HPLC Maximum single impurity %: retention time (min) in brackets
# Experimental: Experimental conditions: the samples were sealed and placed at 80° C. for 24 hours, and then placed in an open dish at 25° C./60% RH (relative humidity) and 40° C./75% RH for 7 days. Detection method: HPLC (only for the starting samples and samples placed at 80° C. for 24 hours), XRD, DSC.
# In addition, the long-term stabilities of the crystalline form 1 for 12 months, 24 months, 36 months, and 48 months at 25° C./60% RH were also investigated.
# [6] = Grinding stability experiment (XRD); format: physicochemical; settings: ground and sieved, US standard 200-300 mesh
# Experimental: Crystalline form 1 was ground and sieved. The US standard 200-300 mesh sieved samples were collected and XRD analyzed. Analysis conditions: Shimadzu XRD-6000, CuK source (1.54056 Å) 40 kV, 30 mA; detection angle: 5-50°, speed: 5°/min.
# [7] = Moisture-induced crystallization experiment (XRD); format: physicochemical; settings: room temperature, 58-97% RH, up to 10 days
# Experimental: About 10 mg of the crystalline form 1 was taken and placed in the corresponding environment, and the solid was detection by XRD at different time.
# [8] = Tissue accumulation experiment in tumor-bearing mice; format: in vivo, BALB/cA nude mice; set-up: content in Tumor / content in Liver / content in Kidney / content in Heart / content in Lung / content in Muscle / content in Brain: unit not given here
# Experimental: Human colon cancer H-29 cells were implanted into the armpits of BALB/cA nude mice. Seven days after the implantation of H-29 cells, 8 female mice were administered with the crystalline form 1 (twice a day) at 40 mg/kg or sunitinib at 40 mg/kg (once a day). The drug administration was continuous for 21 days. Plasma, tissue and tumor samples were collected for analysis 4 hours after the administration on the 22nd day morning.
# [9] = Determination of solubility in conventional solvents, visual inspection method; format: physicochemical; settings: thermodynamic from solid, 25° C.
# Source text: If the sample is still not dissolved at a specific concentration, its solubility is expressed as “<specific concentration”;
# [10] = Pharmacokinetic experiment, oral administration; format: in vivo, Sprague Dawley rats; settings: rat, oral 10 mg/kg; for AUC(0-t) / Cmax: suspension in 0.5% CMC, 10 mg/kg
# Experimental: Twelve Sprague Dawley rats with weight of 230-250 g were randomly divided into 2 groups, wherein each group consisted of 3 males and 3 females. Crystalline forms 1 and 2 were separately prepared as suspensions in 0.5% carboxymethylcellulose (CMC). The rats were fasted for 12 hours with free access to water and then orally administered at a dose of 10 mg/kg. Blood samples (0.2-0.3 ml) before and after 15, 30, 60, 120, 240, 360, 480, 720, 1440 minutes of the oral administration were collected in heparin anticoagulation tubes, which were then centrifuged to obtain plasma. The plasma was stored at −20° C., followed by analysis using API 4000 MS in conjunction with a HPLC unit. The pharmacokinetic parameters Cmax and AUC were calculated according to the determined plasma concentrations and summarized in Table 22.
# [11] = 40 mg/kg for 21 days (crystalline form 1 twice a day, sunitinib once a day), 4 hours after administration on day 22
structure (smiles),measurement,setting,value
"Cc1[nH]c(/C=C2\C(=O)Nc3ccc(F)cc32)c(C)c1C(=O)N[C@H]1CCN(C(=O)N(C)C)C1 [crystalline form 1, 5-[5-fluoro-2-oxo-1,2-dihydro-indole-(3Z)-ylidenemethyl]-2,4-dimethyl-1H-pyrrole-3-carboxylic acid ((S)-1-dimethylcarbamoyl-pyrrolidin-3-yl)-amide]",crystalline form recovered (XRD),"[1]; acetone, ethyl acetate, methanol or water, conversion not complete in methanol",converted to crystalline form 2
same,crystalline form recovered (XRD),[1]; tetrahydrofuran (THF),to crystalline form 3
same,concentration (solubility in water),[2]; 0.5 hours,1.12 µg/mL
same,concentration (solubility in water),[2]; 4 hours,1.32 µg/mL
same,Internal dissolution rate,[3],0.022 mg/(min · cm^2)
same,Moisture absorption,[4]; RH 50%,2.015%
same,Moisture absorption,[4]; RH 80%,2.578%
same,weight change (DVS),[4],about 2.8%
same,weight change (DVS),[4]; listed as Crystalline form 1,2.8%
same,HPLC Purity %,[5]; 0 day (starting sample),99.67%
same,HPLC Maximum single impurity %,[5]; 0 day (starting sample),0.22 (4.73) %
same,long-term stability of the crystalline form,"[5]; 12, 24, 36 and 48 months at 25° C./60% RH",substantially unchanged
same,crystalline form and melting point by XRD and DSC,"[5]; sealed 80° C. 24 hours, open dish 25° C./60% RH and 40° C./75% RH for 7 days",substantially unchanged
same,HPLC Purity %,"[5]; sealed, 80° C./24 h",98.87%
same,HPLC Maximum single impurity %,"[5]; sealed, 80° C./24 h",1.03 (4.73) %
same,stability during grinding (XRD pattern before and after),[6],remained stable
same,stability under humidity conditions (overall),[7],stable
same,content in Brain,[8]; [11],9.3
same,content in Heart,[8]; [11],124.8
same,content in Kidney,[8]; [11],418.3
same,content in Liver,[8]; [11],"1,715.3"
same,content in Lung,[8]; [11],144.9
same,content in Muscle,[8]; [11],77.6
same,content in Plasma,[8]; [11],191.6
same,content in Tumor,[8]; [11],153.4
same,"content in plasma, compared with sunitinib","[8]; 40 mg/kg twice a day, 21 days",comparable to that of sunitinib
same,"tissue accumulation in all tested tissues, compared with sunitinib","[8]; 40 mg/kg twice a day, 21 days",significantly lower than that of sunitinib
same,Solubility,"[9]; acetone, organic solvent or mixture, read-out: solubility in acetone",1000 to 2500 µg/mL
same,Solubility,"[9]; acetonitrile, organic solvent or mixture, read-out: solubility in acetonitrile",< 1000 µg/mL
same,Solubility,"[9]; ethanol, organic solvent or mixture, read-out: solubility in ethanol",1000 to 2500 µg/mL
same,Solubility,"[9]; ethyl acetate, organic solvent or mixture, read-out: solubility in ethyl acetate",< 1000 µg/mL
same,Solubility,"[9]; methanol, organic solvent or mixture, read-out: solubility in methanol",5000 to 12500 µg/mL
same,Solubility,"[9]; methyl tert-butyl ether, organic solvent or mixture, read-out: solubility in methyl tert-butyl ether",< 1000 µg/mL
same,Solubility,"[9]; n-heptane, organic solvent or mixture, read-out: solubility in n-heptane",< 1000 µg/mL
same,Solubility,"[9]; tetrahydrofuran, organic solvent or mixture, read-out: solubility in tetrahydrofuran",1000 to 2500 µg/mL
same,Solubility,"[9]; toluene, organic solvent or mixture, read-out: solubility in toluene",< 1000 µg/mL
same,Solubility,"[9]; water, read-out: solubility in water",< 1000 µg/mL
same,Cmax relative to crystalline form 2,[10],about 4 times
same,exposure (AUC) relative to crystalline form 2,[10],about 3 times
same,AUC(0-t),[10]; average value,10488.3 ng·h/mL
same,Cmax,[10]; average value,1340.3 ng/mL
same,AUC(0-t),[10]; female 1,3536.6 ng·h/mL
same,Cmax,[10]; female 1,593.9 ng/mL
same,AUC(0-t),[10]; female 2,28571.4 ng·h/mL
same,Cmax,[10]; female 2,2649.0 ng/mL
same,AUC(0-t),[10]; female 3,16634.2 ng·h/mL
same,Cmax,[10]; female 3,2033.3 ng/mL
same,AUC(0-t),[10]; male 1,3180.0 ng·h/mL
same,Cmax,[10]; male 1,716.6 ng/mL
same,AUC(0-t),[10]; male 2,6766.0 ng·h/mL
same,Cmax,[10]; male 2,1071.3 ng/mL
same,AUC(0-t),[10]; male 3,4241.5 ng·h/mL
same,Cmax,[10]; male 3,977.7 ng/mL
